± gives the expanded uncertainty stated by the source.
How the values were obtained:
[1] = xn = mol fraction of the nth substance listed; conditions: 313.15 K; 101.3 kPa; Liquid; Vibrating tube method; x2 = 0.333
[2] = refractive index (Na D-line) (dimensionless); xn = mol fraction of the nth substance listed; conditions: 313.15 K; 101.3 kPa; Liquid; Standard Abbe refractometry; x2 = 0.333

`OCCCCCCO` [1,6-hexanediol] + CCC[N+](CCC)(CCC)CCC.[Br-] showed a mass density [1] of 1042.25 ± 2 kg/m3 and a refractive index [2] of 1.47923 ± 0.002.
